We go through 29 molecules from patent publication US10040798B2, “Pyrrolopyridazine inhibitors of IRAK4 activity” (MERCK SHARP & DOHME CORP., priority 2015, dated 2018).

The target of the assay is IRAK4 (Homo sapiens (Human), UniProt Q9NWZ3). Kind of assay: IRAK4 Kinase Assay (IMAP fluorescence polarization). The class given is biochemical. The conditions noted are these: 0.5 nM GST tagged IRAK4, 100 μM ATP, 30 minutes at 25° C., IMAP FP. An outline of the steps: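 GST-tagged IRAK4 (0.5 nM) phosphorylated 100 nM fluorescent peptide RP7030 with 100 μM ATP in 10 mM Tris-HCl pH 7.2, MgCl2, DTT and Tween 20 for 30 min at 25 °C. Phosphorylation was read as the increase in fluorescence polarization after binding to IMAP nanoparticles.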
IRAK4, sequence (Q9NWZ3 whole entry): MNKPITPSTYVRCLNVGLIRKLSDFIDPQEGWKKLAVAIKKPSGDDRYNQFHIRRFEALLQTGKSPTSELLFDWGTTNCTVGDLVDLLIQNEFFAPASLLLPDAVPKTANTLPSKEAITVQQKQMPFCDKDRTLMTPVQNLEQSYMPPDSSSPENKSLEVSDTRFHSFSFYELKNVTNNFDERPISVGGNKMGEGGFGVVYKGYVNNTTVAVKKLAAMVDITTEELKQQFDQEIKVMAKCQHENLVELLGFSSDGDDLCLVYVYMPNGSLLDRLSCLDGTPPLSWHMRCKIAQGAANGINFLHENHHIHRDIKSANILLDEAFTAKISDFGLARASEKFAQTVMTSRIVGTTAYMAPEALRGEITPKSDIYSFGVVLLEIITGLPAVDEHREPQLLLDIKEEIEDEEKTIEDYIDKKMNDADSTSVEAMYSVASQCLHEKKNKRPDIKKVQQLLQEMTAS
(In general: Fluorescence polarisation rises when a labelled molecule tumbles more slowly, as on binding a larger partner.)

SMILES strings stand for the structures. Counter-ions that a name gives are not always drawn.

Regarding `Cn1cc(NC(=O)c2ccc3ccc(N[C@@H]4CCCNC4)nn23)c(C(F)F)n1` [Example 16, N-[3-(difluoromethyl)-1-methyl-1H-pyrazol-4-yl]-2-[(3R)-piperidin-3-ylamino]pyrrolo[1,2-b]pyridazine-7-carboxamide trifluoroacetate], the IC50 (as a rule, the midpoint of a concentration-inhibition curve) turned out to be 0.9 nM. Under `N#Cc1ccccc1NC(=O)c1ccc2ccc(N[C@@H]3CCCC[C@@H]3O)nn12` [Example 104, N-(2-cyanophenyl)-2-{[(1R,2S)-2-hydroxycyclohexyl]amino}pyrrolo[1,2-b]pyridazine-7-carboxamide trifluoroacetate] stands 1860 nM; under `Cn1cc(NC(=O)c2ccc3ccc(N4C[C@H]5CC[C@@H]4CN5)nn23)c(Cl)n1` (single isomer, unassigned) [Example 34, N-(3-chloro-1-methyl-1H-pyrazol-4-yl)-2-[(1S,4S)- or (1R,4R)-2,5-diazabicyclo[2.2.2]oct-2-yl]pyrrolo[1,2-b]pyridazine-7-carboxamide trifluoroacetate], 15 nM; under `Cn1cc(NC(=O)c2ccc3ccc(N4C[C@@H]5CC[C@H]4CN5)nn23)c(C#N)n1` (single isomer, unassigned) [Example 43, N-(3-cyano-1-methyl-1H-pyrazol-4-yl)-2-[(1S,4S)- or (1R,4R)-2,5-diazabicyclo[2.2.2]oct-2-yl]pyrrolo[1,2-b]pyridazine-7-carboxamide trifluoroacetate], 25 nM. Under `O=C(Nc1ccsc1Cl)c1ccc2ccc(N[C@@H]3CCCC[C@@H]3O)nn12` [Example 91, N-(2-chlorothiophen-3-yl)-2-{[(1R,2S)-2-hydroxycyclohexyl]amino}pyrrolo[1,2-b]pyridazine-7-carboxamide] stands 6370 nM; under `Cn1cc(NC(=O)c2ccc3ccc(N[C@@H]4CCCC[C@@H]4O)nn23)c(C(F)F)n1` [Example 20, N-[3-(difluoromethyl)-1-methyl-1H-pyrazol-4-yl]-2-{[(1R,2S)-2-hydroxycyclohexyl]amino}pyrrolo[1,2-b]pyridazine-7-carboxamide trifluoroacetate], 11 nM. Take `Cn1cc(NC(=O)c2ccc3ccc(N4C[C@H]5CC[C@@H]4CN5)nn23)c(Br)n1` (single isomer, unassigned) [Example 36, N-(3-bromo-1-methyl-1H-pyrazol-4-yl)-2-[(1S,4S)- or (1R,4R)-2,5-diazabicyclo[2.2.2]oct-2-yl]pyrrolo[1,2-b]pyridazine-7-carboxamide trifluoroacetate]: inhibition was half-maximal at 22 nM (IC50).

`O=C(Nc1ccccc1Br)c1ccc2ccc(N3CCCNCC3)nn12` [Example 57, N-(2-bromophenyl)-2-(1,4-diazepan-1-yl)pyrrolo[1,2-b]pyridazine-7-carboxamide trifluoroacetate] came in with an IC50 of 3960 nM. `O=C(Nc1ccsc1Cl)c1ccc2ccc(N3CC4CCC3CN4)nn12` (centres unmarked) [Example 70, N-(2-chlorothiophen-3-yl)-2-(2,5-diazabicyclo[2.2.2]oct-2-yl)pyrrolo[1,2-b]pyridazine-7-carboxamide trifluoroacetate] gave a 50% inhibitory concentration (IC50) of 433 nM. Next, `O=C(Nc1ccsc1C(F)(F)F)c1ccc2ccc(N3CCCNCC3)nn12` [Example 115, 2-(1,4-diazepan-1-yl)-N-[2-(trifluoromethyl)thiophen-3-yl]pyrrolo[1,2-b]pyridazine-7-carboxamide trifluoroacetate]: 2020 nM; `Cn1cc(NC(=O)c2ccc3ccc(N4CCNCC4)nn23)c(C(F)F)n1` [Example 14, N-[3-(difluoromethyl)-1-methyl-1H-pyrazol-4-yl]-2-piperazin-1-ylpyrrolo[1,2-b]pyridazine-7-carboxamide trifluoroacetate]: 2 nM; `Cn1cc(NC(=O)c2ccc3ccc(N[C@@H]4CCCCNC4)nn23)c(C(F)(F)F)n1` (single isomer, unassigned) [Example 39, 2-[(3R)- or (3S)-azepan-3-ylamino]-N-[1-methyl-3-(trifluoromethyl)-1H-pyrazol-4-yl]pyrrolo[1,2-b]pyridazine-7-carboxamide trifluoroacetate]: 2 nM.

The molecule `O=C(Nc1cscc1C(F)F)c1ccc2ccc(N3CCCNCC3)nn12` [Example 69, 2-(1,4-diazepan-1-yl)-N-[4-(difluoromethyl)thiophen-3-yl]pyrrolo[1,2-b]pyridazine-7-carboxamide trifluoroacetate] showed an IC50 of 151 nM.

For `Cn1cc(NC(=O)c2ccc3ccc(N4C[C@@H]5CNC[C@H]4C5)nn23)c(C(F)F)n1` (single isomer, unassigned) [Example 125, 2-[(1S,5R)- or (1R,5S)-3,6-diazabicyclo[3.2.1]oct-6-yl]-N-[3-(difluoromethyl)-1-methyl-1H-pyrazol-4-yl]pyrrolo[1,2-b]pyridazine-7-carboxamide], the half-inhibitory concentration (IC50) came out at 5 nM.

With `Cn1cc(NC(=O)c2ccc3ccc(N4C5CCC4CNC5)nn23)c(C(F)(F)F)n1` [Example 120, 2-(3,8-diazabicyclo[3.2.1]oct-8-yl)-N-[1-methyl-3-(trifluoromethyl)-1H-pyrazol-4-yl]pyrrolo[1,2-b]pyridazine-7-carboxamide trifluoroacetate], the half-maximal inhibitory concentration (IC50) came out at 2 nM. `N#Cc1sccc1NC(=O)c1ccc2ccc(N3C[C@H]4CC[C@@H]3CN4)nn12` (single isomer, unassigned) [Example 81, N-(2-cyanothiophen-3-yl)-2-[(1S,4S)- or (1R,4R)-2,5-diazabicyclo[2.2.2]oct-2-yl]pyrrolo[1,2-b]pyridazine-7-carboxamide formate] yielded an IC50 of 356 nM.

As to `CC(C)(C)n1cc(NC(=O)c2ccc3ccc(N[C@@H]4CCCC[C@@H]4O)nn23)c(C(F)F)n1` [Example 54, N-[1-tert-butyl-3-(difluoromethyl)-1H-pyrazol-4-yl]-2-{[(1R,2S)-2-hydroxycyclohexyl]amino}pyrrolo[1,2-b]pyridazine-7-carboxamide trifluoroacetate], the IC50 stood at 640 nM. Molecule `O=C(Nc1ccsc1C(F)(F)F)c1ccc2ccc(N3C[C@@H]4CC[C@H]3CN4)nn12` (single isomer, unassigned) [Example 113, 2-[(1S,4S)- or (1R,4R)-2,5-diazabicyclo[2.2.2]oct-2-yl]-N-[2-(trifluoromethyl)thiophen-3-yl]pyrrolo[1,2-b]pyridazine-7-carboxamide trifluoroacetate] yielded an IC50 of 1220 nM.

For the molecule `Cn1cc(NC(=O)c2ccc3ccc(N4CC5CCC(C4)N5)nn23)c(C(F)F)n1` [Example 46, 2-(3,8-diazabicyclo[3.2.1]oct-3-yl)-N-[3-(difluoromethyl)-1-methyl-1H-pyrazol-4-yl]pyrrolo[1,2-b]pyridazine-7-carboxamide trifluoroacetate], the IC50 stood at 1 nM.

`Cn1cc(NC(=O)c2ccc3ccc(N4CC5CCC(C4)N5)nn23)c(C(F)(F)F)n1` [Example 47, 2-(3,8-diazabicyclo[3.2.1]oct-3-yl)-N-[1-methyl-3-(trifluoromethyl)-1H-pyrazol-4-yl]pyrrolo[1,2-b]pyridazine-7-carboxamide trifluoroacetate] displayed a concentration for half-maximal inhibition (IC50) of 9 nM. In the case of `N[C@H]1CCCC[C@H]1Nc1ccc2ccc(C(=O)Nc3ccccc3C(F)F)n2n1` [Example 112, 2-{[(1R,2S)-2-aminocyclohexyl]amino}-N-[2-(difluoromethyl)phenyl]pyrrolo[1,2-b]pyridazine-7-carboxamide trifluoroacetate], the concentration for half-maximal inhibition (IC50) was found to be 472 nM.

`Cn1cc(NC(=O)c2ccc3ccc(N4CC5CCC4CN5)nn23)c(Br)n1` (centres unmarked) [Example 27, N-(3-bromo-1-methyl-1H-pyrazol-4-yl)-2-(2,5-diazabicyclo[2.2.2]oct-2-yl)pyrrolo[1,2-b]pyridazine-7-carboxamide trifluoroacetate] displayed an IC50 of 24 nM. `O=C(Nc1cscc1C(F)F)c1ccc2ccc(N3CC4CCC3CN4)nn12` (centres unmarked) [Example 56, 2-(2,5-diazabicyclo[2.2.2]oct-2-yl)-N-[4-(difluoromethyl)thiophen-3-yl]pyrrolo[1,2-b]pyridazine-7-carboxamide trifluoroacetate] had a concentration for half-maximal inhibition (IC50) of 95 nM.

Molecule `Cn1cc(NC(=O)c2ccc3ccc(NC4CCCCNC4)nn23)c(C(F)F)n1` (centres unmarked) [Example 24, 2-(azepan-3-ylamino)-N-[3-(difluoromethyl)-1-methyl-1H-pyrazol-4-yl]pyrrolo[1,2-b]pyridazine-7-carboxamide trifluoroacetate] displayed an IC50 of 2 nM.

Consider `Cn1cc(NC(=O)c2ccc3ccc(N4CCCNCC4)nn23)c(Cl)n1` [Example 23, N-(3-chloro-1-methyl-1H-pyrazol-4-yl)-2-(1,4-diazepan-1-yl)pyrrolo[1,2-b]pyridazine-7-carboxamide trifluoroacetate], for which the IC50 was determined as 20 nM.

In the case of `Cn1cc(NC(=O)c2ccc3ccc(N[C@@H]4CCCC[C@@H]4O)nn23)c(C(F)(F)F)n1` [Example 5, 2-{[(1R,2S)-2-hydroxycyclo-hexyl]amino}-N-[1-methyl-3-(trifluoromethyl)-1H-pyrazol-4-yl]pyrrolo[1,2-b]pyridazine-7-carboxamide trifluoroacetate], the 50% inhibitory concentration (IC50) came to 122 nM. Next, `N[C@@H]1[C@H](Nc2ccc3ccc(C(=O)Nc4ccccc4Cl)n3n2)CCCC1(F)F` [Example 92, 2-{[(1R,2R)-2-amino-3,3-difluoro-cyclohexyl]amino}-N-(2-chlorophenyl)pyrrolo[1,2-b]pyridazine-7-carboxamide trifluoroacetate]: 2060 nM; `Cn1cc(NC(=O)c2ccc3ccc(N4C5CCC4CNC5)nn23)c(C(F)F)n1` [Example 119, 2-(3,8-Diazabicyclo[3.2.1]octan-8-yl)-N-(3-(difluoromethyl)-1-methyl-1H-pyrazol-4-yl)pyrrolo[1,2-b]pyridazine-7-carboxamide]: 0.5 nM; `Cn1cc(NC(=O)c2ccc3ccc(N4C[C@H]5CNC[C@@H]4C5)nn23)c(C(F)F)n1` (single isomer, unassigned) [Example 126, 2-[(1S,5R)- or (1R,5S)-3,6-diazabicyclo[3.2.1]oct-6-yl]-N-[3-(difluoromethyl)-1-methyl-1H-pyrazol-4-yl]pyrrolo[1,2-b]pyridazine-7-carboxamide]: 14 nM.
